Molecules are shown by their SMILES. Some results are limits rather than exact numbers.

Usually IC50 stands for the concentration needed to halve the response being measured.

The target of one test is P2X3 receptor. Put plainly: Antagonist activity against rat or human P2X3 receptor expressed in HEK293/1321N1 cells assessed as inhibition of alpha,beta-meATP/ATP-induced calcium influx by Fluo-4 dye based FLIPR assay. The format is functional, cell-based.
In the case of `N#Cc1ccccc1N1CCc2ncnc(NCc3ccc(C(F)(F)F)nc3)c2C1`, the half-maximal inhibitory concentration (IC50) came out at 63 nM.

As to `Cc1ccc(N2CCc3ncnc(NCc4ccc5cccnc5c4)c3C2)c(C#N)c1`, the concentration for half-maximal inhibition (IC50) came to 20 nM. With `Cc1ccc(N2CCc3ncnc(NCc4ccc(C)c(I)c4)c3C2)c(C#N)c1`, the IC50 is 512 nM.

On to `Cc1ccc(N2CCc3ncnc(NCc4ccc(C)c(S(C)(=O)=O)c4)c3C2)c(C#N)c1`, for which the IC50 was 16 nM. As to `N#Cc1cc(F)ccc1N1CCc2ncnc(NCc3ccc(C(F)(F)F)nc3)c2C1`, the IC50 was found to be 85 nM. Regarding `N#Cc1cc(C(F)(F)F)ccc1N1CCc2ncnc(NCc3ccc(C(F)(F)F)nc3)c2C1`, the IC50 stood at 1840 nM. On the same count and under the same terms, next, `N#Cc1cc(Cl)ccc1N1CCc2ncnc(N[C@H](CCO)c3ccc(C(F)F)nc3)c2C1`: 32 nM; `Cc1ccc(N2CCc3ncnc(NCc4ccc5ccccc5n4)c3C2)c(C#N)c1`: 156 nM. As for `Cc1ccc(N2CCc3ncnc(NCc4ccc5nccnc5c4)c3C2)c(C#N)c1`, the IC50 came out at 34 nM. For `CC(=O)OCC[C@@H](Nc1ncnc2c1CN(c1ccc(C)cc1C#N)CC2)c1ccc(C(F)(F)F)nc1`, the half-maximal inhibitory concentration (IC50) is 130 nM.

`CSc1cc(CNc2ncnc3c2CN(c2ccc(C)cc2C#N)CC3)ccc1C`: the half-maximal inhibitory concentration (IC50) is 474 nM. On to `COc1ccc(CNc2ncnc3c2CN(c2ccc(Cl)cc2C#N)CC3)cn1`, for which the IC50 came to 59 nM. In the case of `CCc1ccc(CNc2ncnc3c2CN(c2ccc(C)cc2C#N)CC3)cn1`, the IC50 worked out at 38 nM. `Cc1ccc(N2CCc3ncnc(NCc4ccc(Cl)c(S(C)(=O)=O)c4)c3C2)c(C#N)c1`: the IC50 turned out to be 37 nM. On to `COc1ccc([C@@H](CCO)Nc2ncnc3c2CN(c2ccc(Cl)cc2C#N)CC3)cn1`, for which the IC50 is 33 nM. Take `N#Cc1cc(Br)ccc1N1CCc2ncnc(NCc3ccc(C(F)(F)F)nc3)c2C1`: the IC50 was 80 nM. Consider `Cc1ccc(N2CCc3ncnc(NCc4ccc(C)c(N5CCOCC5)c4)c3C2)c(C#N)c1`, for which the IC50 worked out at 96 nM. Turning to `N#Cc1cc(Cl)ccc1N1CCc2ncnc(NCc3ncc(C(F)(F)F)cc3Cl)c2C1`, the IC50 amounted to 91 nM. The same measure, in the same setting: next, `Cc1ccc(N2CCc3ncnc(N[C@H](CCO)c4ccc(C(F)(F)F)nc4)c3C2)c(C#N)c1`: 23 nM; `Cc1ccc(N2CCc3ncnc(NCc4ccc5c(c4)OCO5)c3C2)c(C#N)c1`: 56 nM; `Cc1ccc(N2CCc3ncnc(NCc4ccc5ocnc5c4)c3C2)c(C#N)c1`: 15 nM. Still for that read-out and setting: next, `Cc1ccc(N2CCc3ncnc(NCc4ccc(C)c(C#N)c4)c3C2)c(C#N)c1`: 63 nM.

In the case of `Cc1ccc(CNc2ncnc3c2CN(c2ccc(Cl)cc2C#N)CC3)cc1S(C)(=O)=O`, the IC50 was found to be 40 nM.

Consider `N#Cc1cc(Cl)ccc1N1CCc2ncnc(NCc3ccc(C(F)(F)F)nc3)c2C1`, for which the concentration for half-maximal inhibition (IC50) amounted to 37 nM. The same measure, in the same setting: the value for `COc1ccc(CNc2ncnc3c2CN(c2ccc(Br)cc2C#N)CC3)cn1` was 78 nM; that for `N#Cc1cc(Cl)ccc1N1CCc2ncnc(NCc3cccc(-n4cnnc4)c3)c2C1` was 284 nM; that for `CN(C)c1ccc(CNc2ncnc3c2CN(c2ccc(Cl)cc2C#N)CC3)cn1` was 628 nM. `N#Cc1cc(Cl)ccc1N1CCc2ncnc(NCc3ccc4nccnc4c3)c2C1`: the IC50 is 125 nM. For the compound `Cc1ccc(N2CCc3ncnc(NCc4ccc(C5CC5)cn4)c3C2)c(C#N)c1`, the half-maximal inhibitory concentration (IC50) was 236 nM. On the same count and under the same terms, next, `Cc1ccc(N2CCc3ncnc(NCc4cccc(C#N)c4)c3C2)c(C#N)c1`: 183 nM; `Cc1ccc(N2CCc3ncnc(NCc4ccn5ccnc5c4)c3C2)c(C#N)c1`: 18 nM.

Consider `Cc1ccc(N2CCc3ncnc(N[C@H](CO)c4ccc(C(F)(F)F)nc4)c3C2)c(C#N)c1`, for which the IC50 came to 21 nM. For `COc1ccc([C@@H](CO)Nc2ncnc3c2CN(c2ccc(Cl)cc2C#N)CC3)cn1`, the IC50 came out at 23 nM. `N#Cc1cc(Cl)ccc1N1CCc2ncnc(N[C@H](CO)c3ccc(C(F)F)nc3)c2C1`: the IC50 was determined as 16 nM. Still for that read-out and setting: the value for `Cc1ccc(N2CCc3ncnc(NCc4ccc(C)c(-n5cncn5)c4)c3C2)c(C#N)c1` was 21 nM. With `Cc1ccc(N2CCc3ncnc(NCc4ccccn4)c3C2)c(C#N)c1`, the 50% inhibitory concentration (IC50) is 196 nM.

`Cc1ccc(N2CCc3ncnc(NCc4ccc(C(F)(F)F)nc4)c3C2)c(C#N)c1`: the IC50 stood at 19 nM. Consider `Cc1ccc(N2CCc3ncnc(NCc4ccc(Cl)cn4)c3C2)c(C#N)c1`, for which the half-inhibitory concentration (IC50) was determined as 29 nM. For the compound `N#Cc1cc(Cl)ccc1N1CCc2ncnc(NCc3ccn4ccnc4c3)c2C1`, the IC50 was found to be 122 nM. On to `Cc1ccc(N2CCc3ncnc(NC(CCO)c4ccc(C(F)(F)F)nc4)c3C2)c(C#N)c1` (configuration not stated), for which the IC50 was determined as 55 nM.

In the case of `Cc1ccc(N2CCc3ncnc(NCc4ccc(Cl)c(-n5cnnc5)c4)c3C2)c(C#N)c1`, the IC50 was 31 nM. On to `Cc1ccc(N2CCc3ncnc(N[C@H](CCO)c4ccc(C(F)F)nc4)c3C2)c(C#N)c1`, for which the IC50 was 13 nM. Regarding `N#Cc1cc(Cl)ccc1N1CCc2ncnc(NCc3ccc(C(F)(F)F)cn3)c2C1`, the IC50 was found to be 118 nM. For the compound `N#Cc1cc(Cl)ccc1N1CCc2ncnc(NCc3ccc(Cl)c(-n4cnnc4)c3)c2C1`, the IC50 was determined as 41 nM.

As for `Cc1ccc(N2CCc3ncnc(NCc4cccc(-n5cnnc5)c4)c3C2)c(C#N)c1`, the IC50 was 65 nM. For the compound `COc1ccc([C@@H](CC(=O)O)Nc2ncnc3c2CN(c2ccc(Cl)cc2C#N)CC3)cn1`, the IC50 came to 1380 nM.

Take `Cc1ccc(N2CCc3ncnc(NCc4ccc(C)c(F)c4)c3C2)c(C#N)c1`: the IC50 came to 89 nM. Same read-out and setting: the value for `Cc1ccc(N2CCc3ncnc(NCc4ccc(Cl)nc4)c3C2)c(C#N)c1` was 11 nM; that for `N#Cc1cc(Cl)ccc1N1CCc2ncnc(N[C@H](CCO)c3ccc(C(F)(F)F)nc3)c2C1` was 90 nM; that for `N#Cc1cc(C2CC2)ccc1N1CCc2ncnc(NCc3ccc(C(F)(F)F)nc3)c2C1` was 870 nM. Regarding `Cc1ccc(N2CCc3ncnc(N[C@@H](CCO)c4ccc(C(F)(F)F)nc4)c3C2)c(C#N)c1`, the IC50 came to 806 nM. On to `Cc1nc(C(F)(F)F)ccc1CNc1ncnc2c1CN(c1ccc(Cl)cc1C#N)CC2`, for which the IC50 was 187 nM. In the case of `Cc1ccc(N2CCc3ncnc(NCc4ncc(Cl)cc4Cl)c3C2)c(C#N)c1`, the IC50 worked out at 41 nM. Consider `COc1ccc([C@H](CC(=O)OC(C)(C)C)Nc2ncnc3c2CN(c2ccc(Cl)cc2C#N)CC3)cn1`, for which the IC50 is > 10000 nM. Same read-out and setting: next, `Cc1ccc(N2CCc3ncnc(NCc4ccc5cc[nH]c5c4)c3C2)c(C#N)c1`: 423 nM; `N#Cc1cc(Cl)ccc1N1CCc2ncnc(N[C@H](CO)c3ccc(C(F)(F)F)nc3)c2C1`: 54 nM.

A further test deals with T1, P2X2/P2X3 heterotrimeric receptor (Homo sapiens, UniProt P56373+Q9UBL9).
T1 sequence (Q9UBL9 whole entry): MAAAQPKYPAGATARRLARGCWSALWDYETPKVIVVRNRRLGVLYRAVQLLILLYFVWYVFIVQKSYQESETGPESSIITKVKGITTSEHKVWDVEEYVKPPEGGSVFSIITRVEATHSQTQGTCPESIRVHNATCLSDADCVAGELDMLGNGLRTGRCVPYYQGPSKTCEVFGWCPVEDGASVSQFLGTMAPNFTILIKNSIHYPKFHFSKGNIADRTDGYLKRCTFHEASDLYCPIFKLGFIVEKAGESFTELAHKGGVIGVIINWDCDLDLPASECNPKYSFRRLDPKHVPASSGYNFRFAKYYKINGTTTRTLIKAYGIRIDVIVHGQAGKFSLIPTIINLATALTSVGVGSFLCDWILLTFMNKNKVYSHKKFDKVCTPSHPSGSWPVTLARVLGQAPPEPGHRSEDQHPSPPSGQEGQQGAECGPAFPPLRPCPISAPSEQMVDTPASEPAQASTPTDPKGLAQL
T1 sequence (P56373 whole entry): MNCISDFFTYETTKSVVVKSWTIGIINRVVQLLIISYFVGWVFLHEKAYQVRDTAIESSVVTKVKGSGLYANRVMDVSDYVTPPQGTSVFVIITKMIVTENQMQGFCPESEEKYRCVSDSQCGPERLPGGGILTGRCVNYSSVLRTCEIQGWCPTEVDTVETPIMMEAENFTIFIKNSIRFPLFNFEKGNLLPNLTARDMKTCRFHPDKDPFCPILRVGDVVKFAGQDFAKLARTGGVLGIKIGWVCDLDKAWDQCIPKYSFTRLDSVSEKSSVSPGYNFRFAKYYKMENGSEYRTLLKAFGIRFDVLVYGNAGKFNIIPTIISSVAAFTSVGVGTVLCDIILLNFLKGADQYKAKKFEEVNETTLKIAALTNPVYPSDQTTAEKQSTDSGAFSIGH
Put plainly: Antagonist activity against human P2X2/3 receptor expressed in HEK293/1321N1 cells assessed as inhibition of alpha,beta-meATP/ATP-induced calcium influx by Fluo-4 dye based FLIPR assay. The format is functional, cell-based.
Turning to `COc1ccc([C@H](CC(=O)OC(C)(C)C)Nc2ncnc3c2CN(c2ccc(Cl)cc2C#N)CC3)cn1`, the IC50 is > 10000 nM.

Source of the values: ChEMBL document CHEMBL3727369, “2-cyanophenyl fused heterocyclic compounds, and compositions and uses thereof” (2013).
